Several values for one entry are separate records, joined by “and”; a condition that tells them apart may be missing. Identical values can stand only once. Like-named read-outs stand apart in the source and are kept apart here.
How the values were obtained:
[1] = test system: morphine self-administration;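 for D12 Inf (PR2 WD) Log: rats trained to self-administer intravenous morphine at 500 µg/kg per infusion, first under FR1 then FR3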;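 for D13 Inf (PR3 Nal) Log: rats trained to self-administer intravenous morphine at 500 µg/kg per infusion, first under FR1 then FR3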
[2] = test system: morphine self-administration; remark: listed apart in the source;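 for D12 Inf (PR2 WD) Log: rats trained to self-administer intravenous morphine at 500 µg/kg per infusion, first under FR1 then FR3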;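 for D13 Inf (PR3 Nal) Log: rats trained to self-administer intravenous morphine at 500 µg/kg per infusion, first under FR1 then FR3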
PKCθ = PKCθ (Homo sapiens, UniProt Q04759); experiment: scanMax kinome panel, PKCθ; format: binding; design: purchased Eurofins-DiscoverX; conditions: 200 nM CP612; read-out: scanMax % of control, PKCθ
Sequence of PKCθ (Q04759 whole entry): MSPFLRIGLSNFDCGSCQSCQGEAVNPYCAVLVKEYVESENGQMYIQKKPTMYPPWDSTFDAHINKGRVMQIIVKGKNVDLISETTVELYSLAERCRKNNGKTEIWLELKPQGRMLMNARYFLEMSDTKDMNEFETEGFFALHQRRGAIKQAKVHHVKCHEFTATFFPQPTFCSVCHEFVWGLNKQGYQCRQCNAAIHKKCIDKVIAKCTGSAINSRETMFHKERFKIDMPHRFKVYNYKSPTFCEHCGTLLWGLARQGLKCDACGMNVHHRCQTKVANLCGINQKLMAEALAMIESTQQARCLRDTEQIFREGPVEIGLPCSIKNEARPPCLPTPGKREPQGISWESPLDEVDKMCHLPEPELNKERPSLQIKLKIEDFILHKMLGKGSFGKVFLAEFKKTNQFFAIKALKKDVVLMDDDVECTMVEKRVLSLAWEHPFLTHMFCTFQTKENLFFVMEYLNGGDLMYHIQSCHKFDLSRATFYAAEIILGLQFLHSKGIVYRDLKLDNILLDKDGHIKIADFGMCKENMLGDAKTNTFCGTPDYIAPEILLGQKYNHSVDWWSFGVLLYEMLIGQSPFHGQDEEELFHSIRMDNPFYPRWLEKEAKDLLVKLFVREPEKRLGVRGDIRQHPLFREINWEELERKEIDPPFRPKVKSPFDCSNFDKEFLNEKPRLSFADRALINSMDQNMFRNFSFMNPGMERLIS
Method: CP612 was screened for kinome specificity at 200 nM against 468 kinases using the scanMax assay panel from Eurofins-DiscoverX. CP612 inhibited 10 other WT kinases besides PKCε, all to < 10% of control: CLK1 (CDC Like Kinase 1), CLK4, PKN1 (Protein kinase N1), PKN2, PKCδ, PKCη, PKCθ, PRKG2 (Protein Kinase CGMP-Dependent 2), ROCK1, and ROCK2.

[3] = test system: paclitaxel-induced hyperalgesia; experiment: Paclitaxel-induced hyperalgesia, Randall-Selitto paw pressure test; conditions: for Force applied that led to paw withdrawal: one paw
Method: We tested if CP612 reverses this hyperalgesia. Male rats received repeated injections of paclitaxel (1 mg/kg, i.p. on days 1, 3, 5, and 7). Twenty-four hours after the last dose of paclitaxel, rats were administered vehicle (2 mL/kg, i.p.) or CP612 (20 mg/kg, i.p.).
Mechanical nociceptive thresholds in rats were quantified by the Randall-Selitto paw pressure test using an Ugo Basile Analgesy-Meter. This device applies a linearly increasing mechanical force to the dorsum or plantar region of the rat hind paw. The mechanical nociceptive threshold is defined as the force in grams at which a rat withdraws its paw. The higher the force to elicit paw withdrawal, the higher the pain threshold (and the lower the sensitivity to pain). For studies testing nociceptive thresholds after the PKCε activator ψεRACK, or after the cancer chemotherapeutic drug paclitaxel, rats were placed into cylindrical acrylic restrainers for 40 minutes before starting each session. The restrainers had lateral ports to allow access to the hind paw, as previously described ([35]), and pain thresholds were measured by applying force to the dorsum of the hind paw. Prior to starting experiments, baseline mechanical nociceptive threshold was obtained as the mean of 2–3 readings on 1 hind paw in each rat.

SMILES: N[C@H](CNC(=O)C1(c2ccc(Cl)cc2)CCCC1)c1ccc(C(=O)Nc2ccncc2)cc1 [CP612]
- D12 Inf (PR2_WD) Log ([1]; log of infusions, Day 12, PR2 withdrawal, CP612 6 hours prior, group mean, n=6): 0.91
- D13 Inf (PR3_Nal) Log ([1]; log of infusions, Day 13, PR3_Nal, CP612 6 hours prior, group mean, n=7): 0.85
- D12 Inf (PR2_WD) Log ([1]; log of infusions, PR2_WD, day 12, individual rats): 1.04 and 0.85 and 0.90
- D10 Latency (PR1) Log ([1]; log of latency, Day 10, PR1, CP612 6 hours prior, group mean, n=7): -0.40
- D12 Latency (PR2_WD) Log ([1]; log of latency, Day 12, PR2 withdrawal, CP612 6 hours prior, group mean, n=6): -0.00262
- D13 Latency (PR3_Nal) Log ([1]; log of latency, Day 13, PR3_Nal, CP612 6 hours prior, group mean, n=7): -0.48
- D2 Inf (FR1) ([1]; morphine infusions, Day 2, fixed ratio 1, mean of CP612 group, n=7): 10.71
- D3 Inf (FR1) ([1]; morphine infusions, Day 3, fixed ratio 1, mean of CP612 group, n=7): 10.86
- D4 Inf (FR1) ([1]; morphine infusions, Day 4, fixed ratio 1, mean of CP612 group, n=7): 11.00
- D4 Inf (FR3) ([1]; morphine infusions, Day 4, fixed ratio 3, mean of CP612 group, n=7): 11.00
- D5 Inf (FR3) ([1]; morphine infusions, Day 5, fixed ratio 3, mean of CP612 group, n=7): 6.43
- D6 Inf (FR3) ([1]; morphine infusions, Day 6, fixed ratio 3, mean of CP612 group, n=7): 7.14
- D7 Inf (FR3) ([1]; morphine infusions, Day 7, fixed ratio 3, mean of CP612 group, n=7): 7.71
- D8 Inf (FR3) ([1]; morphine infusions, Day 8, fixed ratio 3, mean of CP612 group, n=7): 9.57
- D9 Inf (FR3) ([1]; morphine infusions, Day 9, fixed ratio 3, mean of CP612 group, n=7): 10.29
- D10 Inf (PR1) ([1]; morphine infusions, Day 10, progressive ratio test PR1, CP612 6 hours prior, group mean, n=7): 8.86
- D12 Inf (PR2_WD) ([1]; morphine infusions, Day 12, progressive ratio test PR2 in withdrawal, CP612 6 hours prior, group mean, n=6): 8.17
- D13 Inf (PR3_Nal) ([1]; morphine infusions, Day 13, progressive ratio test PR3_Nal, CP612 6 hours prior, group mean, n=7): 7.29
- Inf (avg all) ([1]; morphine infusions, average of all self-administration days D1-D9, mean of CP612 group, n=7): 9.33
- Inf (avg last 3 days) ([1]; morphine infusions, average of last 3 days, mean of CP612 group, n=7): 9.19
- D12 Inf (PR2_WD) ([1]; morphine infusions, progressive ratio session PR2_WD, day 12, individual rats): 11 and 7 and 8
- D1 Inf (FR1) ([1]; morphine infusions, self-administration Day 1, fixed ratio 1, mean of CP612 group, n=7): 10.29
- D1 Latency (FR1) ([1]; time to first infusion, Day 1, fixed ratio 1, mean of CP612 group, n=7): 3.00 min
- D2 Latency (FR1) ([1]; time to first infusion, Day 2, fixed ratio 1, mean of CP612 group, n=7): 1.98 min
- D3 Latency (FR1) ([1]; time to first infusion, Day 3, fixed ratio 1, mean of CP612 group, n=7): 0.73 min
- D4 Latency (FR3) ([1]; time to first infusion, Day 4, fixed ratio 3, mean of CP612 group, n=7): 0.44 min
- D5 Latency (FR3) ([1]; time to first infusion, Day 5, fixed ratio 3, mean of CP612 group, n=7): 0.20 min
- D6 Latency (FR3) ([1]; time to first infusion, Day 6, fixed ratio 3, mean of CP612 group, n=7): 0.53 min
- D7 Latency (FR3) ([1]; time to first infusion, Day 7, fixed ratio 3, mean of CP612 group, n=7): 0.53 min
- D8 Latency (FR3) ([1]; time to first infusion, Day 8, fixed ratio 3, mean of CP612 group, n=7): 0.46 min
- D9 Latency (FR3) ([1]; time to first infusion, Day 9, fixed ratio 3, mean of CP612 group, n=7): 0.44 min
- D10 Latency (PR1) ([1]; time to first infusion, Day 10, PR1, CP612 6 hours prior, group mean, n=7): 0.60 min
- D12 Latency (PR2_WD) ([1]; time to first infusion, Day 12, PR2 withdrawal, CP612 6 hours prior, group mean, n=6): 1.44 min
- D13 Latency (PR3_Nal) ([1]; time to first infusion, Day 13, PR3_Nal, CP612 6 hours prior, group mean, n=7): 0.75 min
- D9 Latency (avg all) ([1]; time to first infusion, average of all days D1-D9, mean of CP612 group, n=7): 0.92 min
- D9 Latency (avg last 3 days) ([1]; time to first infusion, average of last 3 days, mean of CP612 group, n=7): 0.48 min
- Effect on morphine self-administration (breaking point and self-infusions) ([2]; CP612 30 mg/kg i.p. 18 hours prior, 30 mg/kg): did not modify self-administration
- Inf (avg last 3 days) ([2]; rats, morphine SA 18 h after CP612, average of last 3 days, infusions): 8 and 12
- remaining binding at 0.2 µM (PKCθ): < 10%
- Force applied that led to paw withdrawal ([3]; 0min (24 h after last paclitaxel, before CP612)): 95 grams and 102.5 grams and 100 grams and 97.5 grams and 101.7 grams
- Force applied that led to paw withdrawal ([3]; 15min after CP612 20 mg/kg intraperitoneally, 20 mg/kg): 120 grams and 125 grams and 110 grams and 115 grams and 117.5 grams
- Force applied that led to paw withdrawal ([3]; 30min after CP612 20 mg/kg intraperitoneally, 20 mg/kg): 110 grams and 122.5 grams and 117.5 grams and 112.5 grams
- Force applied that led to paw withdrawal ([3]; 60min after CP612 20 mg/kg intraperitoneally, 20 mg/kg): 111.7 grams and 120 grams and 116.7 grams and 113.3 grams and 121.7 grams
- Force applied that led to paw withdrawal ([3]; 120min after CP612 20 mg/kg intraperitoneally, 20 mg/kg): 101.7 grams and 116.7 grams and 111.7 grams and 103.3 grams and 96.7 grams and 115 grams
- Force applied that led to paw withdrawal ([3]; 24h after CP612 20 mg/kg intraperitoneally, 20 mg/kg): 85 grams and 116.7 grams and 90 grams and 91.7 grams and 96.7 grams
- Force applied that led to paw withdrawal ([3]; baseline (before paclitaxel and CP612)): 127.5 grams and 125 grams and 140 grams
- Effect on paclitaxel-induced hyperalgesia ([3]; male rats, CP612 20 mg/kg i.p., 15, 30, 60 and 120 minutes): attenuated
- Decrease in paclitaxel-induced hyperalgesia 1 day after CP612 ([3]; male rats, CP612 20 mg/kg i.p., 24 hours): dissipated

Reference: paper PMC12016938, “A small molecule PKCε inhibitor reduces hyperalgesia induced by paclitaxel or opioid withdrawal” (JCI Insight, 2025)
